10 molecules from patent US20210087167A1, “ASK1 INHIBITOR COMPOUNDS AND USES THEREOF” (SEAL ROCK THERAPEUTICS, INC., priority 2017, published 2021) can be followed below.

pIC50: −log10 of the molar value. Some results are limits rather than exact numbers.

The first assay deals with T1, ASK1 (Homo sapiens, UniProt Q99683).
T1 construct: purchased Promega V3881
T1 sequence (Q99683 649-946 limits assumed): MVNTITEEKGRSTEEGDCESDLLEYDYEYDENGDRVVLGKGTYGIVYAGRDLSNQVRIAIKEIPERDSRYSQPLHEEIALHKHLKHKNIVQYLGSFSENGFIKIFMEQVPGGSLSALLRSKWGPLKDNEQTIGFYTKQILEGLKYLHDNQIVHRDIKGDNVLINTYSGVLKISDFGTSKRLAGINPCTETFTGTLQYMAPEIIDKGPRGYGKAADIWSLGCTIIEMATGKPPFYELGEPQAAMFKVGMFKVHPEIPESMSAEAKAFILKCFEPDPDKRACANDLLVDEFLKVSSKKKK
The assay is described as follows: ASK1 Kinase Assay (Promega ASK1 Kinase Enzyme System, ADP-Glo). Type of assay: biochemical. The following applies: enzyme 50 nM, myelin basic protein 1 μg/ml, ATP 10 μM. The procedure: The ASK1 enzymatic assay was run following Promega ASK1 Kinase Enzyme System (Cat #V3881). The kit provides the protocol, enzymes and all reagents necessary to run an assay.
Firstly, the compounds, enzyme, substrate and ATP were diluted in provided assay buffer. The final concentration of the enzyme was 50 nM, substrate (Myelin basic protein) 1 μg/ml and ATP 10 μM. The compound and the enzyme were pre-incubated in a 384 well white solid bottom plate (Greiner, Cat #784075) for 10 minutes. After incubation, the substrate and ATP were added and incubated for further 60 minutes. After 60 minutes, ADP-Glo™ was added and plate was incubated for another 40 minutes. After 40 minutes, Kinase Detection Reagent was added and the plate was incubated for 45 minutes. After 45 minutes, plate was read on Perkin Elmer EnVision using luminescence read (0.5 seconds/well).
In general terms: In ADP-Glo the light output rises with the ADP produced.
Turning to `O=C(Nc1cc2c(cc1F)CN(c1cccc(-c3nncn3C3CC3)n1)C2=O)C1CC1` [Compound 75, N-(2-(6-(4-cyclopropyl-4H-1,2,4-triazol-3-yl)pyridin-2-yl)-6-fluoro-3-oxoisoindolin-5-yl)cyclopropanecarboxamide], the negative-log IC50 (pIC50) (usually −log10 of the IC50, conventionally taken in molar units) is 6.00 to 6.70. With `CN(C)c1ccc2c(c1)CN(c1cccc(-c3nncn3C3CC3)n1)C2=O` [Compound 34], the pIC50 is > 6.70.

In the case of “2-(6-(4-cyclopropyl-4H-1,2,4-triazol-3-yl)pyridin-2-yl)-5-isopropoxy-6-(pyridin-3-yl)isoindolin-1-one [Compound 70]”, the pIC50 was > 6.70.

For `Cn1ccc(-c2ccc3c(c2)CN(c2cccc(-c4nncn4C4CC4)n2)C3=O)n1` [Compound 27], the pIC50 is > 6.70.

The next assay has as its system LPS-induced TNFalpha in human PBMCs. The assay is described as follows: Inhibition of LPS-induced TNFalpha in human PBMCs (ELISA). Type of assay: cell-based. To be noted: PBMC, 100 ng/ml LPS, 6 hr, read-out: TNFa Inhibition IC50. How it is done:
Cryopreserved human PBMCs were obtained from AllCells (cat #PB003F). After thawing/dilution protocols using RPMI medium supplemented with 5% FBS (heat inactivated), 100 ul/well of 1×10^6 cells/ml were plated into 96 well tissue culture plates (Corning). Cells were then pre-incubated for 1 hr at 37° C. in humidified 5% CO2 and 95% air with test compounds diluted in DMSO (final DMSO concentration 0.3%). Each compound was tested at 10 concentrations in duplicate wells. After the pre-incubation, 100 ng/ml LPS (E. Coli; Sigma) in RPMI media with 5% FBS was added for a 6 hr incubation at 37° C. in humidified 5% CO2 and 95% air. Controls on each plate included cells and LPS only, cells and media only (no LPS), and media only. After the 6 hr incubation, plates were centrifuged and the supernatants transferred to a new plate and frozen for subsequent TNFalpha analysis. Human TNFalpha was analyzed by ELISA according to the manufacturer's instructions (BD Sciences, BD OptEIAm Cat #550610) and analyzed on a SpectraMax M series (Molecular Devices) microplate reader at OD 450 nm. IC50s were calculated using XLFit4 curve fitting software (IDBS) and a 4-parameter one-site sigmoid dose response fit.
In the case of `CC1(O)CCN(C(=O)c2ccc3c(c2)CN(c2cccc(-c4nncn4C4CC4)n2)C3=O)CC1` [Compound 13, 2-(6-(4-cyclopropyl-4H-1,2,4-triazol-3-yl)pyridin-2-yl)-5-(4-hydroxy-4-methylpiperidine-1-carbonyl)isoindolin-1-one], the pIC50 was < 5.00. Regarding `CC(=O)NC1CCN(C(=O)c2ccc3c(c2)CN(c2cccc(-c4nncn4C4CC4)n2)C3=O)CC1` [Compound 17, N-(1-(2-(6-(4-cyclopropyl-4H-1,2,4-triazol-3-yl)pyridin-2-yl)-1-oxoisoindoline-5-carbonyl)piperidin-4-yl)acetamide], the pIC50 is < 5.00. Same read-out and setting: the result for `O=C1c2cc(-c3cnc(C4CC4)cn3)ccc2CN1c1cccc(-c2nncn2C2CC2)n1` [Compound 60, 2-(6-(4-cyclopropyl-4H-1,2,4-triazol-3-yl)pyridin-2-yl)-6-(5-cyclopropylpyrazin-2-yl)isoindolin-1-one] reads < 5.00. Same read-out and setting: the result for `O=C(c1ccc2c(c1)CN(c1cccc(-c3nncn3C3CC3)n1)C2=O)N1CCC(O)CC1` [Compound 12, 2-(6-(4-cyclopropyl-4H-1,2,4-triazol-3-yl)pyridin-2-yl)-5-(4-hydroxypiperidine-1-carbonyl)isoindolin-1-one] reads < 5.00; that for `O=C(c1ccc2c(c1)CN(c1cccc(-c3nncn3C3CC3)n1)C2=O)N1CCOCC1` [Compound 7, 2-(6-(4-cyclopropyl-4H-1,2,4-triazol-3-yl)pyridin-2-yl)-5-(morpholine-4-carbonyl)isoindolin-1-one], < 5.00; that for `CC(=O)N1CCN(C(=O)c2ccc3c(c2)CN(c2cccc(-c4nncn4C4CC4)n2)C3=O)CC1` [Compound 16, 5-(4-acetylpiperazine-1-carbonyl)-2-(6-(4-cyclopropyl-4H-1,2,4-triazol-3-yl)pyridin-2-yl)isoindolin-1-one], < 5.00.
